Patent US20260199294A1, “PEPTIDE DRUG CONJUGATES” (Oncopeptides Innovation AB, priority 2022, published 2026)

What was measured:
[1] = tested on: nuclear DNA (HPRT) prepared from MM.1S cells; assay: Direct DNA damage, PCR amplification with HPRT primers; assay type: biochemical, human; details: 0.25 μM compound, 30 minutes at 37° C.
Procedure: (§1) Method: DNA was prepared from MM.1S cells by QIAGEN genomic tip 20/G according to protocol described in Furda et al., Methods Mol Biol, 2012. 1 μg of DNA was treated with 0.25 μM compound for 30 minutes at 37° C. DMSO was used as control treatment. 20 ng of the treated DNA was PCR amplified using Phusion Hot Start II High Fidelity PCR Master Mix (Thermo Scientific) and primers directed to either HPRT or primers directed to mitochondrial DNA (mtDNA) was used, generating 10.4 or 8.9 kb fragments, respectively. The PCR reactions were separated on a 1% agarose gel and visualized by ChemiDoc™ MP Imaging System (BioRad). Example compounds 1, 2 and 38 were investigated, as were compounds 18 and 20, which are metabolites of compound 1. They were compared with bendamustine, melphalan and DMSO control. The results for compounds 1, 2, 18 and 20 with the HPRT primers are shown in FIG. 4(A); the results with the mtDNA primers are shown in FIG. 4(B).

MM.1S cells [2] = assay: Cellular retention/efflux: intracellular and extracellular concentrations by LC-MS/MS; assay type: in vitro ADME, human; details: MM.1S cells, 5, 15 and 60 min; metabolites measured after treatment with the parent Example compound
Procedure: Methods: MM.1S cells at 2×10^6 cells/mL were seeded at 250 μL per well in a 96-well plate. Cells were incubated in the presence of a test compound for 5, 15, and 60 min before pelleting cells by centrifugation at +4° C. for 5 min. Cell media was immediately harvested to a second plate and stored at −80° C. until further analysis. Pelleted cells were washed once with ice cold PBS before storage at −80° C. until further analysis.
Cells were lysed and protein in the media were precipitated using acetonitrile dimethylformamide, 9:1 containing internal standard. Samples were centrifuged and the supernatant was analyzed with LC-MS/MS (ACQUITY UPLC-Xevo TQ-S micro) to determine compound concentration.
Example compound 1, bendamustine and melphalan were used as test compounds.
Method: Method described in Biological example 3.
Example compounds 1, 2, 3, 4, 6, 7 and 10 were investigated. Intracellular metabolites are formed from all compounds tested. The compound used for cell treatment was metabolised to the ester-hydrolysed compound (here called Metabolite A) and to the amide-hydrolysed compound (called Metabolite B). The example compound structures and the structures of the two metabolites for the respective compounds were as shown in Table 4. The Metabolites B formed under the conditions tested were compounds with structure as Examples 17 and 18: […]

MM.1S cells [3] = assay: DNA fragmentation, APO-BrdU TUNEL assay by FACS; assay type: cell-based, human
Procedure: Method: 1×10^6 MM.1S cells (CRL-2974, ATCC) were treated with Example compound 1 or Bendamustine at 0.006, 0.06, 0.6 or 6 μM for 24 h. After incubation, the cells were washed with PBS (10010-015, Gibco), fixed in Flow Cytometry Fixation Buffer (FC004, R&D Systems) for 10 min and stored in 70% ethanol at −20° C. overnight. The deoxythymidine analog (BrdUTP) was present in the experiment and served to label the DNA break sites. Next day, the cells were washed and stained using an APO-BrdU™ TUNEL Assay Kit, according to the manufacturer's protocol (A23210, Invitrogen), followed by the analysis using BD FACSCanto™ II. The percentage ofTUNEL positive cells indicates the percentage of cells with fragmented DNA.

[4] = tested on: mitochondrial DNA (mtDNA) prepared from MM.1S cells; assay: Direct DNA damage, PCR amplification with mtDNA primers; assay type: biochemical, human; details: 0.25 μM compound, 30 minutes at 37° C.
Procedure: as §1

[5] = tested on: hPBMC (Human Peripheral blood mononuclear cells); assay: In vitro cytotoxicity (CellTiter-Glo, 72 h) in hPBMC; assay type: cell-based; details: stimulated with PHA-M and IL-2
Procedure: (§2) All cells were cultivated in RPMI medium 1640 (IX). All media was supplemented with […] penicillin/streptomycin, 10% heat inactivated FBS, 0.1 mM Sodium Pyruvate, 1×MEM NEAA (ThermoFisher) and 1 mM HEPES. The DERL-2 cells had higher FBS (20%) and 40 ng/mL IL-2 was added. hPBMCs were thawed and allowed to acclimatise overnight and then stimulated with 10 µg/mL PHA-M and 40 ng/mL IL-2 for 4 hours before being exposed to test compounds. All cells, except for hPBMCs, were grown to reach log phase before being exposed to the test compounds.
(§3) Test compounds were dissolved in 100% DMSO and added to a 384 assay plate. Additional DMSO was added to maintain the same final DMSO concentration (0.2%) in all wells. 25 μL cell suspension with a concentration of 100000 cells/mL was added to each well. The cells were cultured in a CO2 incubator at 37° C. for 72 h. Plates were equilibrated to room temperature for 30 minutes before adding 20 μL CellTiter-Glo® 2.0 (Promega) reagent to all wells. The plate was then allowed to stabilize for 20 minutes before recording the luminescence (Em filter 700 nm) in an Envision plate reader.

[6] = tested on: BJ Fibroblasts (normal cells); assay: In vitro cytotoxicity (CellTiter-Glo, 72 h) in BJ fibroblasts; assay type: cell-based, human
Procedure: as §2, §3

Structure (SMILES) | DNA damage on nuclear DNA (HPRT 10.4 kb PCR band) [1] | extracellular concentration (media) (MM.1S cells [2]) | intracellular concentration (MM.1S cells [2]) | DNA damage on mitochondrial DNA (8.9 kb PCR band) [4] | IC50 [6] [nM] | further results
Cn1c(CCCC(=O)O)nc2cc(N(CCCl)CCCl)ccc21 [Bendamustine, reference compound] | no or very minor effect on DNA damage | quite high and decreased over time | Low intracellular concentrations could be detected of bendamustine and the level decreases over time | no or very minor effect on DNA damage | – | cells with DNA breaks (MM.1S cells [3]; 0.6 μM for 24 h): not the case; dose response effect on DNA damage (TUNEL positive cells) (MM.1S cells [3]; 0.006, 0.06, 0.6 or 6 μM for 24 h): no obvious effect
CCOC(=O)[C@H](Cc1ccc(F)cc1)NC(=O)[C@@H](N)CCc1nc2cc(N(CCCl)CCCl)ccc2n1C [Example compound 2, Ethyl (2S)-2-[[(2S)-2-amino-4-[5-[bis(2-chloroethyl)amino]-1-methyl-benzimidazol-2-yl]butanoyl]amino]-3-(4-fluorophenyl)propanoate] | strong DNA damaging effect | – | – | strong DNA damaging effect | – | IC50 [5]: 7.5 nM
CCOC(=O)[C@H](Cc1nc2cc(N(CCCl)CCCl)ccc2n1C)NC(=O)[C@@H](N)CC(C)C [Example compound 10, Ethyl (2S)-2-[[(2S)-2-amino-4-methyl-pentanoyl]amino]-3-[5-[bis(2-chloroethyl)amino]-1-methyl-benzimidazol-2-yl]propanoate] | – | – | – | – | – | IC50 [5]: 26.4 nM
CCOC(=O)[C@H](CC(C)C)NC(=O)[C@@H](N)CCc1nc2cc(N(CCCl)CCCl)ccc2n1-c1ccccc1 [Example compound 13, Ethyl (2S)-2-[[(2S)-2-amino-4-[5-[bis(2-chloroethyl)amino]-1-phenyl-benzimidazol-2-yl]butanoyl]amino]-4-methyl-pentanoate] | – | – | – | – | > 2000 | –
Cl.Cl.Cn1c(CC[C@H](N)C(=O)O)nc2cc(N(CCCl)CCCl)ccc21 [Example compound 18, (S)-2-amino-4-(5-(bis(2-chloroethyl)amino)-1-methyl-1H-benzo[d]imidazol-2-yl)butanoic acid] | effectively damaged | low levels of it are found in the media outside the cells | rapidly formed inside the cells | effectively damaged | – | –
CC(C)C[C@H](NC(=O)[C@@H](N)CCc1nc2cc(N(CCCl)CCCl)ccc2n1C)C(=O)O [Example compound 20, (2S)-2-[[(2S)-2-amino-4-[5-[bis(2-chloroethyl)amino]-1-methyl-benzimidazol-2-yl]butanoyl]amino]-4-methyl-pentanoic acid] | DNA damaging effect but to a lesser degree compared to Example compounds 1, 2 and 18, but greater than Bendamustine or Melphalan | – | – | DNA damaging effect but to a lesser degree compared to Example compounds 1, 2 and 18, but greater than Bendamustine or Melphalan | – | –
CC(C)C[C@H](NC(=O)[C@@H](N)CCc1nc2cc(N(CCCl)CCCl)ccc2n1C)C(=O)N(C)C [Example compound 30, (2S)-2-[[(2S)-2-Amino-4-[5-[bis(2-chloroethyl)amino]-1-methyl-benzimidazol-2-yl]butanoyl]amino]-N,N,4-trimethyl-pentanamide] | – | – | – | – | > 2000 | –
CCOC(=O)[C@H](Cc1ccc(F)cc1)NC(=O)[C@H](CCc1nc2cc(N(CCCl)CCCl)ccc2n1C)NC(C)=O [Example compound 34, Ethyl (2S)-2-[[(2S)-2-acetamido-4-[5-[bis(2-chloroethyl)amino]-1-methyl-benzimidazol-2-yl]butanoyl]amino]-3-(4-fluorophenyl)propanoate] | – | – | – | – | > 2000 | –
CCOC(=O)[C@@H](N)CCc1nc2cc(N(CCCl)CCCl)ccc2n1C.Cl.Cl [Example compound 38, Ethyl (2S)-2-amino-4-[5-[bis(2-chloroethyl)amino]-1-methyl-benzimidazol-2-yl]butanoate] | effectively damaged | – | – | effectively damaged | – | –
N[C@@H](Cc1ccc(N(CCCl)CCCl)cc1)C(=O)O [Melphalan, reference compound] | no or very minor effect on DNA damage | high and constant throughout the experiment | low intracellular concentration | no or very minor effect on DNA damage | – | –
